# Measured values from patent US20250230193A1, “CYCLIC COMPOUND HAVING SELECTIVE KRAS INHIBITORY EFFECT ON HRAS AND NRAS” (CHUGAI SEIYAKU KABUSHIKI KAISHA, priority 2022, published 2025).
# Where a SMILES comes first, the peptide text is derived from it. Bridges are numbered along the chain shown (N, C = ends). [ ]: non-standard residue; d: D form. hPhe(3-Cl-4-CF3) = N[C@@H](CCc1ccc(C(F)(F)F)c(Cl)c1)C(=O)O; NPrPhe(4-CF3) = CCCN[C@@H](Cc1ccc(C(F)(F)F)cc1)C(=O)O; NMeGly(cPent) = CN[C@H](C(=O)O)C1CCCC1; Pro(4,4-F2) = O=C(O)[C@@H]1CC(F)(F)CN1; Hyp = O=C(O)[C@@H]1C[C@@H](O)CN1; NMeL = CN[C@@H](CC(C)C)C(=O)O; NMeA = CN[C@@H](C)C(=O)O; Ac5c = NC1(C(=O)O)CCCC1; Aze = O=C(O)[C@@H]1CCN1; Ac4c = NC1(C(=O)O)CCC1; NEtG = CCNCC(=O)O; Sar = CNCC(=O)O
# Experiments:
# [1] = biological target: GDP-bound NRAS wild-type protein (Homo sapiens, UniProt P01111); assay: Binding to NRAS by surface plasmon resonance (SPR), Single Cycle Kinetics; settings: KD ratio NRAS/KRAS, SPR
# [2] = biological target: GDP-bound HRAS wild-type protein (Homo sapiens, UniProt P01112); assay: Binding to HRAS by surface plasmon resonance (SPR), Single Cycle Kinetics; settings: KD ratio HRAS/KRAS, SPR
# Chain of GDP-bound HRAS wild-type protein (P01112 whole entry): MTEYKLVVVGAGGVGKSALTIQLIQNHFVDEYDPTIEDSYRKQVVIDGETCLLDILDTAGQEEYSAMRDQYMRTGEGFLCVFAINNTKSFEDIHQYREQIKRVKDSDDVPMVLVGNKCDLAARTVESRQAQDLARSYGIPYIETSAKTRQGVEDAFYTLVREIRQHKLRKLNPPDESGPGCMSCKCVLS
# Chain of GDP-bound NRAS wild-type protein (P01111 whole entry): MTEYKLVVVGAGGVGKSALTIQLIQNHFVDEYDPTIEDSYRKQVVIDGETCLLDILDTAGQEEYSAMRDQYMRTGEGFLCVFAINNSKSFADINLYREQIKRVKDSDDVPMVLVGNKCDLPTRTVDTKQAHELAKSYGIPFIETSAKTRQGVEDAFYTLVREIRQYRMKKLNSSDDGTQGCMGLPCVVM
Structure (SMILES),NRAS/KRAS (ratio of KD for GDP-bound NRAS wild-type to KD for KRAS) [1],HRAS/KRAS (ratio of KD for GDP-bound HRAS wild-type to KD for KRAS) [2]
"CCCN1C(=O)CN(C)C(=O)CN(CC)C(=O)[C@H]([C@@H](C)CC)NC(=O)[C@H](CC(C)C)N(C)C(=O)C[C@@H](C(=O)N(C)C)NC(=O)[C@H](C2CCCC2)N(C)C(=O)C2(CCCC2)NC(=O)[C@@H]2CC(F)(F)CN2C(=O)[C@H](CCc2ccc(C(F)(F)F)c(Cl)c2)NC(=O)CN(C)C(=O)[C@@H]1Cc1ccc(C(F)(F)F)cc1 [PP0369] ([NMeL]I[NEtG][Sar][NPrPhe(4-CF3)][Sar][hPhe(3-Cl-4-CF3)][Pro(4,4-F2)][Ac5c][NMeGly(cPent)]D-NMe2; lactam N-11)",B (a compound having 3 or more and less than 10 is denoted as B),C (A compound having a KD ratio of 0.1 or more and less than 3 is denoted as C)
"CCCN1C(=O)CN(C)C(=O)CN(CC)C(=O)[C@H]([C@@H](C)CC)NC(=O)[C@H](CC(C)C)N(C)C(=O)C[C@@H](C(=O)N(C)C)NC(=O)[C@H](C2CCCC2)N(C)C(=O)C2(CCC2)NC(=O)[C@@H]2CC(F)(F)CN2C(=O)[C@H](CCc2ccc(C(F)(F)F)c(Cl)c2)NC(=O)CN(C)C(=O)[C@@H]1Cc1ccc(C(F)(F)F)cc1 [PP0370] ([NMeL]I[NEtG][Sar][NPrPhe(4-CF3)][Sar][hPhe(3-Cl-4-CF3)][Pro(4,4-F2)][Ac4c][NMeGly(cPent)]D-NMe2; lactam N-11)",B (a compound having 3 or more and less than 10 is denoted as B),C (A compound having a KD ratio of 0.1 or more and less than 3 is denoted as C)
CCCN1C(=O)CN(C)C(=O)CN(CC)C(=O)[C@H]([C@@H](C)CC)NC(=O)[C@H](CC(C)C)N(C)C(=O)C[C@@H](C(=O)N(C)C)NC(=O)[C@H](C2CCCC2)N(C)C(=O)C2(CCCC2)NC(=O)[C@@H]2C[C@@H](OCC)CN2C(=O)[C@H](CCc2ccc(C(F)(F)F)c(Cl)c2)NC(=O)CN(C)C(=O)[C@@H]1Cc1ccc(C(F)(F)F)cc1 [PP0371] ([NMeL]I[NEtG][Sar][NPrPhe(4-CF3)][Sar][hPhe(3-Cl-4-CF3)][Hyp](Et)[Ac5c][NMeGly(cPent)]D-NMe2; lactam N-11),B (a compound having 3 or more and less than 10 is denoted as B),C (A compound having a KD ratio of 0.1 or more and less than 3 is denoted as C)
CCCN1C(=O)CN(C)C(=O)CN(CC)C(=O)[C@H]([C@@H](C)CC)NC(=O)[C@H](CC(C)C)N(C)C(=O)C[C@@H](C(=O)N(C)C)NC(=O)[C@H](C2CCCC2)N(C)C(=O)C2(CCC2)NC(=O)[C@@H]2C[C@@H](OCC)CN2C(=O)[C@H](CCc2ccc(C(F)(F)F)c(Cl)c2)NC(=O)CN(C)C(=O)[C@@H]1Cc1ccc(C(F)(F)F)cc1 [PP0372] ([NMeL]I[NEtG][Sar][NPrPhe(4-CF3)][Sar][hPhe(3-Cl-4-CF3)][Hyp](Et)[Ac4c][NMeGly(cPent)]D-NMe2; lactam N-11),B (a compound having 3 or more and less than 10 is denoted as B),B (a compound having 3 or more and less than 10 is denoted as B)
CCCN1C(=O)CN(C)C(=O)[C@@H]2CCN2C(=O)[C@H]([C@@H](C)CC)NC(=O)[C@H](CC(C)C)N(C)C(=O)C[C@@H](C(=O)N(C)C)NC(=O)[C@H](C2CCCC2)N(C)C(=O)C2(CCCC2)NC(=O)[C@@H]2CCCN2C(=O)[C@H](CCc2ccc(C(F)(F)F)c(Cl)c2)NC(=O)CN(C)C(=O)[C@@H]1Cc1ccc(C(F)(F)F)cc1 [PP0373] ([NMeL]I[Aze][Sar][NPrPhe(4-CF3)][Sar][hPhe(3-Cl-4-CF3)]P[Ac5c][NMeGly(cPent)]D-NMe2; lactam N-11),B (a compound having 3 or more and less than 10 is denoted as B),B (a compound having 3 or more and less than 10 is denoted as B)
CCCN1C(=O)CN(C)C(=O)[C@@H]2CCN2C(=O)[C@H]([C@@H](C)CC)NC(=O)[C@H](CC(C)C)N(C)C(=O)C[C@@H](C(=O)N(C)C)NC(=O)[C@H](C2CCCC2)N(C)C(=O)C2(CCC2)NC(=O)[C@@H]2CCCN2C(=O)[C@H](CCc2ccc(C(F)(F)F)c(Cl)c2)NC(=O)CN(C)C(=O)[C@@H]1Cc1ccc(C(F)(F)F)cc1 [PP0374] ([NMeL]I[Aze][Sar][NPrPhe(4-CF3)][Sar][hPhe(3-Cl-4-CF3)]P[Ac4c][NMeGly(cPent)]D-NMe2; lactam N-11),B (a compound having 3 or more and less than 10 is denoted as B),B (a compound having 3 or more and less than 10 is denoted as B)
"CCCN1C(=O)CN(C)C(=O)[C@@H]2CCN2C(=O)[C@H]([C@@H](C)CC)NC(=O)[C@H](CC(C)C)N(C)C(=O)C[C@@H](C(=O)N(C)C)NC(=O)[C@H](C2CCCC2)N(C)C(=O)C2(CCCC2)NC(=O)[C@@H]2CC(F)(F)CN2C(=O)[C@H](CCc2ccc(C(F)(F)F)c(Cl)c2)NC(=O)CN(C)C(=O)[C@@H]1Cc1ccc(C(F)(F)F)cc1 [PP0375] ([NMeL]I[Aze][Sar][NPrPhe(4-CF3)][Sar][hPhe(3-Cl-4-CF3)][Pro(4,4-F2)][Ac5c][NMeGly(cPent)]D-NMe2; lactam N-11)",B (a compound having 3 or more and less than 10 is denoted as B),B (a compound having 3 or more and less than 10 is denoted as B)
"CCCN1C(=O)CN(C)C(=O)[C@@H]2CCN2C(=O)[C@H]([C@@H](C)CC)NC(=O)[C@H](CC(C)C)N(C)C(=O)C[C@@H](C(=O)N(C)C)NC(=O)[C@H](C2CCCC2)N(C)C(=O)C2(CCC2)NC(=O)[C@@H]2CC(F)(F)CN2C(=O)[C@H](CCc2ccc(C(F)(F)F)c(Cl)c2)NC(=O)CN(C)C(=O)[C@@H]1Cc1ccc(C(F)(F)F)cc1 [PP0376] ([NMeL]I[Aze][Sar][NPrPhe(4-CF3)][Sar][hPhe(3-Cl-4-CF3)][Pro(4,4-F2)][Ac4c][NMeGly(cPent)]D-NMe2; lactam N-11)",B (a compound having 3 or more and less than 10 is denoted as B),B (a compound having 3 or more and less than 10 is denoted as B)
CCCN1C(=O)CN(C)C(=O)[C@@H]2CCN2C(=O)[C@H]([C@@H](C)CC)NC(=O)[C@H](CC(C)C)N(C)C(=O)C[C@@H](C(=O)N(C)C)NC(=O)[C@H](C2CCCC2)N(C)C(=O)C2(CCCC2)NC(=O)[C@@H]2C[C@@H](OCC)CN2C(=O)[C@H](CCc2ccc(C(F)(F)F)c(Cl)c2)NC(=O)CN(C)C(=O)[C@@H]1Cc1ccc(C(F)(F)F)cc1 [PP0377] ([NMeL]I[Aze][Sar][NPrPhe(4-CF3)][Sar][hPhe(3-Cl-4-CF3)][Hyp](Et)[Ac5c][NMeGly(cPent)]D-NMe2; lactam N-11),B (a compound having 3 or more and less than 10 is denoted as B),C (A compound having a KD ratio of 0.1 or more and less than 3 is denoted as C)
CCCN1C(=O)CN(C)C(=O)[C@@H]2CCN2C(=O)[C@H]([C@@H](C)CC)NC(=O)[C@H](CC(C)C)N(C)C(=O)C[C@@H](C(=O)N(C)C)NC(=O)[C@H](C2CCCC2)N(C)C(=O)C2(CCC2)NC(=O)[C@@H]2C[C@@H](OCC)CN2C(=O)[C@H](CCc2ccc(C(F)(F)F)c(Cl)c2)NC(=O)CN(C)C(=O)[C@@H]1Cc1ccc(C(F)(F)F)cc1 [PP0378] ([NMeL]I[Aze][Sar][NPrPhe(4-CF3)][Sar][hPhe(3-Cl-4-CF3)][Hyp](Et)[Ac4c][NMeGly(cPent)]D-NMe2; lactam N-11),B (a compound having 3 or more and less than 10 is denoted as B),B (a compound having 3 or more and less than 10 is denoted as B)
CCCN1C(=O)[C@@H]2CCN2C(=O)[C@H](C)N(C)C(=O)[C@H]([C@@H](C)CC)NC(=O)[C@H](CC(C)C)N(C)C(=O)C[C@@H](C(=O)N(C)C)NC(=O)[C@H](C2CCCC2)N(C)C(=O)C2(CCCC2)NC(=O)[C@@H]2CCCN2C(=O)[C@H](CCc2ccc(C(F)(F)F)c(Cl)c2)NC(=O)CN(C)C(=O)[C@@H]1Cc1ccc(C(F)(F)F)cc1 [PP0379] ([NMeL]I[NMeA][Aze][NPrPhe(4-CF3)][Sar][hPhe(3-Cl-4-CF3)]P[Ac5c][NMeGly(cPent)]D-NMe2; lactam N-11),C (A compound having a KD ratio of 0.1 or more and less than 3 is denoted as C),B (a compound having 3 or more and less than 10 is denoted as B)
CCCN1C(=O)[C@@H]2CCN2C(=O)[C@H](C)N(C)C(=O)[C@H]([C@@H](C)CC)NC(=O)[C@H](CC(C)C)N(C)C(=O)C[C@@H](C(=O)N(C)C)NC(=O)[C@H](C2CCCC2)N(C)C(=O)C2(CCC2)NC(=O)[C@@H]2CCCN2C(=O)[C@H](CCc2ccc(C(F)(F)F)c(Cl)c2)NC(=O)CN(C)C(=O)[C@@H]1Cc1ccc(C(F)(F)F)cc1 [PP0380] ([NMeL]I[NMeA][Aze][NPrPhe(4-CF3)][Sar][hPhe(3-Cl-4-CF3)]P[Ac4c][NMeGly(cPent)]D-NMe2; lactam N-11),C (A compound having a KD ratio of 0.1 or more and less than 3 is denoted as C),B (a compound having 3 or more and less than 10 is denoted as B)
"CCCN1C(=O)[C@@H]2CCN2C(=O)[C@H](C)N(C)C(=O)[C@H]([C@@H](C)CC)NC(=O)[C@H](CC(C)C)N(C)C(=O)C[C@@H](C(=O)N(C)C)NC(=O)[C@H](C2CCCC2)N(C)C(=O)C2(CCCC2)NC(=O)[C@@H]2CC(F)(F)CN2C(=O)[C@H](CCc2ccc(C(F)(F)F)c(Cl)c2)NC(=O)CN(C)C(=O)[C@@H]1Cc1ccc(C(F)(F)F)cc1 [PP0381] ([NMeL]I[NMeA][Aze][NPrPhe(4-CF3)][Sar][hPhe(3-Cl-4-CF3)][Pro(4,4-F2)][Ac5c][NMeGly(cPent)]D-NMe2; lactam N-11)",C (A compound having a KD ratio of 0.1 or more and less than 3 is denoted as C),B (a compound having 3 or more and less than 10 is denoted as B)
